# According to paper PMC6450673, “Targeted degradation of aberrant tau in frontotemporal dementia patient-derived neuronal cell models” (eLife, 2019):
# Values joined by “and” are separate entries in the source; they are usually repeats but may differ in a detail not shown here. Equal entries are not always repeated.
# System: total tau (TAU5) in tau-P301L patient iPSC-derived neurons
# Assay: Human total tau ELISA in P301L neurons
# Assay type: cell-based
# Conditions: for TAU5 (total tau by ELISA, relative to vehicle-treated): 24 h, replicate values
# Source text: Cells from individuals carrying the tau risk variant A152T (c.1407G > A; NCBI RefSeq NM_001123066, rs143624519), the autosomal dominant mutation P301L (c.C1907T; NCBI NM_001123066, rs63751273), or age-matched non-mutant WT tau were employed in this study (Figure 2—source data 1). Dermal fibroblasts from the tau-P301L carrier and the healthy individual were generated from a skin biopsy from subjects within the MGH Frontotemporal Disorders Unit as part of the MGH Neurodegeneration Repository. Approval for human subjects’ work was obtained under a Partners/MGH-approved IRB Protocol (#2010P001611/MGH). Fibroblasts were reprogrammed into iPSCs, which were subsequently converted into cortical-enriched neural progenitor cells (NPCs) and differentiated into neuronal cells as previously described ([Almeida et al., 2012]; [Seo et al., 2017]; [Silva et al., 2016]; [Sheridan et al., 2011]) (Silva MC, Manuscript in preparation, 2019). Briefly, cells were cultured in 6-well (Fisher Scientific Corning, Pittsburgh, PA) or 96-well (Fisher Scientific Corning) plates coated with poly-ornithine (20 μg/mL in water, Sigma, St. Louis, MO) and laminin (5 μg/mL in PBS, Sigma) (POL-coated), in DMEM/F12-B27 media [70% DMEM (Gibco, Carlsbad, CA), 30% Ham’s-F12 (Fisher Scientific Corning), 2% B27 (Gibco), 1% penicillin-streptomycin (Gibco)]. Media was supplemented with EGF (20 ng/mL, Sigma), FGF (20 ng/mL, Stemgent, Cambridge, MA) and heparin (5 μg/mL, Sigma), to promote NPC proliferation and expansion. The growth factors were withdrawn to promote neural differentiation for 6 to 8 weeks, with half media change two times per week. Cell lines’ identity was authenticated by SANGER sequencing, karyotyping and ACGH analysis at different stages of culture maintenance from iPSC to NPC. All working cell lines tested negative for mycoplasma contamination.
# Compound treatment in six-well plates was performed in 2 mL media volume by removing 1 mL of conditioned media from the culture and adding 1 mL of new media pre-mixed with the compound at the appropriate 2X concentration, followed by incubation at 37°C for the designated period of time. Compound treatment in 96-well plates was performed in 100 μL media volume by adding compound directly to each well, followed by incubation at 37°C. When testing the effect of drug pre-treatment, the first compound was added as described above for the period of time needed, and then QC-01–175 was added directly onto the media without media exchange.
# Neuronal cells differentiated in six-well plate format for 6 weeks, were collected as described for western blotting, and lysed in ELISA-compatible buffer (Invitrogen FNN0011), supplemented with 1 mM PMSF, protease (Roche) and phosphatase (Sigma) inhibitors cocktails, for 30 min on ice with quick vortexing. Lysates were clarified by centrifugation at 13,000 rpm at 4°C for 10 min. The clear lysates were then transferred to new microfuge tubes and total protein concentration was quantified with the Pierce BCA Protein Assay Kit (ThermoFisher Scientific). ELISA assays were performed according to manufacturer instructions: Human Total Tau ELISA (Invitrogen Kit KHB0041/KHB0042) and P-Tau[pS396] Human ELISA Kit (Invitrogen Kit KHB7031). Data was plotted using GraphPad Prism version 8.0.
Compound,"clearance of tau, on average (P301L heterozygous neurons) [%]","Dmax, 4h, total tau (P301L neurons, ELISA, 4 hr, at 100 nM) [%]","Dmax, 24h, total tau (P301L neurons, ELISA, 24 hr, achieved at 1 μM) [%]","TAU5 (total tau by ELISA, relative to vehicle-treated) (P301L neurons, 0.001 μM compound)","TAU5 (total tau by ELISA, relative to vehicle-treated) (P301L neurons, 0.01 μM compound)","TAU5 (total tau by ELISA, relative to vehicle-treated) (P301L neurons, 0.05 μM compound)","TAU5 (total tau by ELISA, relative to vehicle-treated) (P301L neurons, 0.1 μM compound)","TAU5 (total tau by ELISA, relative to vehicle-treated) (P301L neurons, 0.5 μM compound)","TAU5 (total tau by ELISA, relative to vehicle-treated) (P301L neurons, 1 μM compound)","TAU5 (total tau by ELISA, relative to vehicle-treated) (P301L neurons, 10 μM compound)","effect on tau levels (P301L neurons, ELISA, 24 hr)"
O=C(CCc1ccc2c(c1)[nH]c1ccncc12)NCCOCCOCCNc1cccc2c1C(=O)N(C1CCC(=O)NC1=O)C2=O (centres unmarked) [QC-01–175],> 60,80,60,–,–,–,–,–,–,–,–
O=C(CCc1ccc2c(c1)[nH]c1ccncc12)NCCOCCOCCNc1cccc2c1C(=O)N(C1CCCNC1=O)C2=O (centres unmarked) [QC-03–075],–,–,–,1.36 and 1.29 and 0.81 and 0.64 and 0.98 and 0.94,1.08 and 1.03 and 0.64 and 0.51 and 0.78 and 0.75,1.04 and 0.99 and 0.62 and 0.49 and 0.75 and 0.72,0.98 and 0.93 and 0.58 and 0.46 and 0.71 and 0.68,1.24 and 1.35 (2×) and 1.15 and 0.91 and 0.94,1.01 and 1.13 and 1.02 and 0.81 and 1.24 and 1.19,1.05 and 1.00 and 0.62 and 0.49 and 0.76 and 0.73,minimal effect
